Test results: the supplement of paper PMC13380429

How the values were obtained:
Settings in all cases: 72 h
[1] = system: Caco-2; experiment: cell viability relative to DMSO; higher = less toxic
[2] = system: Calu-3; experiment: as above
[3] = system: HepG2; experiment: as above
[4] = system: U2OS; experiment: as above
[5] = system: Vero E6; experiment: as above
[6] = system: Caco-2; experiment: relative viability EC50 (midpoint between 100% and the lowest measured viability); higher = less toxic
[7] = system: Calu-3; experiment: as above
[8] = system: HepG2; experiment: as above
[9] = system: U2OS; experiment: as above
[10] = system: Vero E6; experiment: as above
[11] = system: Caco-2; experiment: drug sensitivity score (DSS) for viability; higher = more toxic; extreme values may be limits of the assay
[12] = system: Calu-3; experiment: as above
[13] = system: HepG2; experiment: as above
[14] = system: U2OS; experiment: as above
[15] = system: Vero E6; experiment: as above

| Compound | cell viability ([1]; 1 nM) | cell viability ([1]; 10 nM) | cell viability ([1]; 100 nM) | cell viability ([1]; 1000 nM) | cell viability ([1]; 10000 nM) | cell viability ([2]; 1 nM) | cell viability ([2]; 10 nM) | cell viability ([2]; 100 nM) | cell viability ([2]; 1000 nM) | cell viability ([2]; 10000 nM) | cell viability ([3]; 1 nM) | cell viability ([3]; 10 nM) | cell viability ([3]; 100 nM) | cell viability ([3]; 1000 nM) | cell viability ([3]; 10000 nM) | cell viability ([4]; 1 nM) | cell viability ([4]; 10 nM) | cell viability ([4]; 100 nM) | cell viability ([4]; 1000 nM) | cell viability ([4]; 10000 nM) | cell viability ([5]; 1 nM) | cell viability ([5]; 10 nM) | cell viability ([5]; 100 nM) | cell viability ([5]; 1000 nM) | cell viability ([5]; 10000 nM) | relative viability EC50 [6] | relative viability EC50 [7] | relative viability EC50 [8] | relative viability EC50 [9] | relative viability EC50 [10] | drug sensitivity score [11] | drug sensitivity score [12] | drug sensitivity score [13] | drug sensitivity score [14] | drug sensitivity score [15] |
| --- | --- | --- | --- | --- | --- | --- | --- | --- | --- | --- | --- | --- | --- | --- | --- | --- | --- | --- | --- | --- | --- | --- | --- | --- | --- | --- | --- | --- | --- | --- | --- | --- | --- | --- | --- |
| C[C@@H]1NC(=O)[C@@H]2CCCN2C(=O)[C@H](CC(N)=O)NC(=O)[C@@H]2CSSC[C@H](N)C(=O)N[C@H]3CSSC[C@H](NC1=O)C(=O)N[C@@H]([C@@H](C)O)C(=O)NCC(=O)N[C@H](C(=O)N[C@@H](Cc1ccc(O)cc1)C(=O)O)CSSC[C@H](NC(=O)[C@H](Cc1ccc(O)cc1)NC(=O)[C@H](CCC(=O)O)NC3=O)C(=O)N2 [linaclotide] | 98.8% | 98.9% | 104% | 110% | 95.1% | 90.3% | 91.2% | 83.9% | 107% | 97.2% | 93.6% | 93.8% | 102% | 88.9% | 94.2% | 101% | 101% | 97.3% | 100% | 95.8% | 100% | 106% | 104% | 91.1% | 103% | > 10 µM | > 10 µM | > 10 µM | > 10 µM | > 10 µM | 0 | 0 | 0 | 0 | 0 |
| Cc1cccc(C)c1OCC(=O)N[C@@H](Cc1ccccc1)[C@@H](O)C[C@H](Cc1ccccc1)NC(=O)[C@H](C(C)C)N1CCCNC1=O [lopinavir] | 90.9% | 102% | 102% | 93.9% | 84.8% | 103% | 90.1% | 97.3% | 102% | 104% | 107% | 106% | 108% | 104% | 86.5% | 101% | 107% | 100% | 101% | 93.3% | 103% | 99.1% | 104% | 101% | 110% | > 10 µM | > 10 µM | > 10 µM | > 10 µM | > 10 µM | 0.7 | 0 | 0.1 | 0 | 0 |
| Cc1ccccc1OCC(O)CO (stereo not given) [mephenesin] | 90.8% | 96.5% | 94.4% | 93.1% | 92.7% | 111% | 91.1% | 103% | 101% | 106% | 107% | 113% | 109% | 102% | 99.8% | 101% | 96.8% | 104% | 97.1% | 100% | 110% | 103% | 99.6% | 102% | 98.4% | > 10 µM | > 10 µM | > 10 µM | > 10 µM | > 10 µM | 0 | 0 | 0 | 0 | 0 |
| O=C1NC(=S)NC(=O)C1C(=O)Nc1ccccc1 [merbarone] | 94.7% | 93.3% | 103% | 94% | 94.5% | 99.3% | 100% | 105% | 106% | 110% | 104% | 87.2% | 100% | 99.8% | 102% | 93.9% | 96.3% | 97.4% | 103% | 104% | 100% | 91.6% | 93.9% | 92.7% | 106% | > 10 µM | > 10 µM | > 10 µM | > 10 µM | > 10 µM | 0 | 0 | 0 | 0 | 0 |
| CC(=O)Nc1cccc(O)c1 [metacetamol] | 104% | 101% | 89.1% | 93.8% | 98.8% | 98.1% | 101% | 99.9% | 99.8% | 96.9% | 103% | 91.5% | 93.7% | 92.1% | 83.8% | 103% | 101% | 99.7% | 95.5% | 101% | 102% | 94.1% | 96% | 97.9% | 102% | > 10 µM | > 10 µM | > 10 µM | > 10 µM | > 10 µM | 0 | 0 | 0.6 | 0 | 0 |
| Cc1cc(C(C)(C)CC(C)(C)C)ccc1OCCOCC[N+](C)(C)Cc1ccccc1 [methylbenzethonium-chloride] | 95.2% | 102% | 99.3% | 85% | 42.5% | 103% | 103% | 91.4% | 89.8% | 80.5% | 92% | 105% | 98.1% | 108% | 81.2% | 101% | 94.7% | 102% | 98.9% | 82.2% | 95.9% | 98.5% | 92.2% | 98.3% | 106% | 1.51 µM | > 10 µM | > 10 µM | > 10 µM | > 10 µM | 5.4 | 1.3 | 0.3 | 0.6 | 0 |
| CCCCCCCCCCCCCCCCOP(=O)([O-])OCC[N+](C)(C)C [miltefosine] | 113% | 104% | 106% | 114% | 99.8% | 98.3% | 91.5% | 90.3% | 108% | 86.5% | 107% | 98.5% | 112% | 96.4% | 109% | 96.8% | 103% | 97.2% | 99.9% | 95.5% | 96.1% | 101% | 110% | 105% | 77.3% | > 10 µM | > 10 µM | > 10 µM | > 10 µM | > 10 µM | 0 | 0 | 0 | 0 | 0.6 |
| COc1nc(C)nc(Cl)c1NC1=NCCN1 [moxonidine] | 97.1% | 95.6% | 95.8% | 105% | 88.7% | 96.2% | 93.5% | 90% | 101% | 97.5% | 103% | 101% | 99.3% | 104% | 95.5% | 98.7% | 101% | 97.1% | 102% | 99.3% | 102% | 100% | 93.2% | 94.5% | 106% | > 10 µM | > 10 µM | > 10 µM | > 10 µM | > 10 µM | 0 | 0 | 0 | 0 | 0 |
| CC[C@@H](Nc1c(Nc2cccc(C(=O)N(C)C)c2O)c(=O)c1=O)c1ccc(C)o1 [navarixin] | 95% | 99.3% | 106% | 99.3% | 91.6% | 89.2% | 98.3% | 95.1% | 102% | 105% | 97.9% | 87.4% | 93.8% | 94.6% | 99% | 93.4% | 102% | 98.3% | 98.4% | 103% | 94.9% | 95.3% | 96.6% | 90.2% | 107% | > 10 µM | > 10 µM | > 10 µM | > 10 µM | > 10 µM | 0 | 0 | 0 | 0 | 0 |
| CN1C(=O)C(Cc2c[nH]c3ccccc23)NC1=S (stereo not given) [necrostatin-1] | 97.7% | 95.8% | 107% | 110% | 100% | 93.9% | 92% | 90.3% | 96.2% | 99% | 110% | 94.5% | 98.1% | 94.6% | 90.6% | 93.6% | 99.2% | 97.7% | 98.6% | 95.1% | 95.8% | 99% | 101% | 99.8% | 103% | > 10 µM | > 10 µM | > 10 µM | > 10 µM | > 10 µM | 0 | 0 | 0 | 0 | 0 |
| CCOC(=O)c1ccc(N(C)c2csc(-c3ccccc3)n2)cc1 [neuropathiazol] | 92.9% | 94.1% | 80.2% | 97.3% | 104% | 92.4% | 97.2% | 108% | 110% | 97.3% | 86.2% | 97.3% | 103% | 107% | 93.2% | 101% | 97.2% | 98.8% | 99.5% | 99.3% | 108% | 103% | 96.2% | 101% | 96.3% | > 10 µM | > 10 µM | > 10 µM | > 10 µM | > 10 µM | 0 | 0 | 0 | 0 | 0 |
